Results from paper PMC8500837, “The tertiary structure of the human Xkr8–Basigin complex that scrambles phospholipids at plasma membranes” (Nature Structural & Molecular Biology, 2021).
Numbering of substitutions follows the chain as printed. Structures can show the parent of a compound that is named as a salt.

Legend:
[1] = molecular target: T1, mXkr8 (mXkr8-GFP; mXkr8–BSG complex) (Mus musculus, UniProt Q8C0T0, W45A); assay: flow cytometry of NBD-SM internalization (BSA back-extraction) in Ba/F3 transformants; type: cell-based; conditions: 0.5 µM NBD-SM, 20 °C, labelled compound; constitutively active mutant
T1 construct: gene Xkr8; full length, C-terminal GFP tag, stably expressed in TMEM16F-/- Xkr8-/- mouse Ba/F3 cells; endogenous Basigin (or Neuroplastin) as partner; with Basigin
T1 sequence (Q8C0T0 1-401 W45A): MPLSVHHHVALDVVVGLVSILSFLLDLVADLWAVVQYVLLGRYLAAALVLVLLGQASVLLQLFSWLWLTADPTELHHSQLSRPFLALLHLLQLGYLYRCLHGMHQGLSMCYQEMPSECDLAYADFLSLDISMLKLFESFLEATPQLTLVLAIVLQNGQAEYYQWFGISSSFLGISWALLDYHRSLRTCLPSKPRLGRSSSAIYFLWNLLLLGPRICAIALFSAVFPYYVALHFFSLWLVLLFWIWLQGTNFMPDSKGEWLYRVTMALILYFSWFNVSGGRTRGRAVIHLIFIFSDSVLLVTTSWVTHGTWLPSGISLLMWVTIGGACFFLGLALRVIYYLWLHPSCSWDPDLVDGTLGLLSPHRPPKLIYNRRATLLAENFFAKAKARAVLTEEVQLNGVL
T1 sequence (P18572 22-389 partner): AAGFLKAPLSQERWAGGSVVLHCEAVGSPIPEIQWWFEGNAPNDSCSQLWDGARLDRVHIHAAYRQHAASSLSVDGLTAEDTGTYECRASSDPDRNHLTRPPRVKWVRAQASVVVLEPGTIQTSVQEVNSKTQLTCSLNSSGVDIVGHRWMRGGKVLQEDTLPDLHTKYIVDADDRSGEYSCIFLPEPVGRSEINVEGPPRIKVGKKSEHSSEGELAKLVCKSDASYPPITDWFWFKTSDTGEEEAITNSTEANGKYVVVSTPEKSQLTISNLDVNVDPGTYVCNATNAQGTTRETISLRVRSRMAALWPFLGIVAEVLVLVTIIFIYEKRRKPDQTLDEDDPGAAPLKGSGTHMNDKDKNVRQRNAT

[2] = molecular target: T2, mXkr8 (mXkr8-GFP; mXkr8–BSG complex) (Mus musculus, UniProt Q8C0T0); assay: as above; type: cell-based; conditions: 0.5 µM NBD-SM, 4 °C or 20 °C, labelled compound; lipid scrambling outer to inner leaflet
T2 construct: gene Xkr8; full length, C-terminal GFP tag, stably expressed in TMEM16F-/- Xkr8-/- mouse Ba/F3 cells; endogenous Basigin (or Neuroplastin) as partner; with Basigin
T2 sequence (Q8C0T0 1-401): T1 sequence (Q8C0T0 1-401 W45A) with A45W
T2 sequence (P18572 22-389 partner): T1 sequence (P18572 22-389 partner)

CCCCCCCCCCCCC/C=C/[C@@H](O)[C@H](COP(=O)([O-])OCC[N+](C)(C)C)NC(=O)CCCCCNc1ccc([N+](=O)[O-])c2nonc12 [NBD-SM, (7S)-4-hydroxy-7-[(1R,2E)-1-hydroxy-2-hexadecen-1-yl]-N,N,N-trimethyl-14-[(7-nitro-2,1,3-benzoxadiazol-4-yl)amino]-9-oxo-3,5-dioxa-8-aza-4-phosphatetradecan-1-aminium, 4-oxide inner salt]
fold internalization vs wild type [1]: ~ 3 fold
flow cytometry of NBD-SM internalization (BSA back-extraction) in Ba/F3 transfor [2]: Ba/F3 cell transformants expressing wild-type Xkr8 efficiently incorporated NBD-SM
